From EP2930248B1, “METHOD FOR PREDICTING SENSITIVITY OF OSTEOSARCOMA PATIENT TO ANTICANCER AGENT” (National Cancer Center, priority 2014, dated 2015) come the findings set out here.

The test system of one experiment is 143B. In words: Sensitivity test: cell viability (Cell Counting Kit-8) after anticancer agent, RNA-transfected cells. The class given is cell-based, Human. The note with it: 143B cells, MTX 72 hours, DOX and CDDP 48 hours. The procedure: (§1) Human osteosarcoma cell lines used were MNNG/HOS, MG63 and 143B. The cells were seeded in a 96-well plate at 3 x 10^3 cells/well. After 24 hours, the medium was replaced with fresh medium and miRNA-100 (SEQ ID NO: 1), miRNA-125b (SEQ ID NO: 2) or negative control (nonsense RNA) (microRNA control, Non-target RNA (S10CM0600; COSMO BIO Co., Ltd)) was introduced to the cells using DharmaFECT transfection reagents (Thermo Scientific). At 24 hours after RNA introduction, the medium was replaced with fresh medium. Specific procedures followed the protocol attached to the gene transfer reagents used.
(§2) Methotrexate (MTX), doxorubicin (DOX) and cisplatin (CDDP) were applied to the cells lines MNNG/HOS, MG63 or 143B to which various RNAs were introduced under following conditions followed by incubation over a certain period. The viability of the cells thereafter was measured with the Cell Counting Kit-8 (Dojindo Laboratories). Specific procedures followed the protocol attached to the kit used.
(§3) Methotrexate (MTX): applied at a final concentration of 0 to 32 µM and incubated for 72 hours.
(§4) Doxorubicin (DOX): applied at a concentration of 0 to 1.3 µM and incubated for 48 hours.
(§5) Cisplatin (CDDP): applied at a final concentration of 0 to 32 µM and incubated for 48 hours.
(§6) From the results of measurement of the viability of the cells, the 50% inhibitory concentration of cell proliferation (IC50) for each anticancer agent was determined.
(In general: Tetrazolium assays rely on reduction of a dye to a coloured formazan, in cell work by metabolically active cells.)

The next experiment has as its system MNNG/HOS. Described as above. The class given is cell-based, Human. The note with it: MTX 72 hours, DOX and CDDP 48 hours. How it is done: as §1, §2, §3, §4, §5, §6
In a further experiment the test system is MG63. The experiment is described as above. The experiment is classed as cell-based, Human. Particulars: MTX 72 hours, DOX and CDDP 48 hours. How it is done:
as §1, §2, §3, §4, §5, §6

For the next experiment, the system named is BAK1. In words: BAK1 protein expression by western blotting in RNA-transfected MNNG/HOS cells. The experiment is classed as cell-based, human. Particulars: with application of DOX 64 µM, 48 hours, Fig. 8. The procedure: A human osteosarcoma cell line used was MNNG/HOS. The cells were seeded in a 96-well plate at 3 x 10^3 cells/well. After 24 hours, the medium was replaced with fresh medium and miRNA-125b (SEQ ID NO: 2) or negative control (nonsense RNA) (microRNA control, Non-target RNA (S10CM0600; COSMO BIO Co., Ltd)) was introduced to the cells using DharmaFECT transfection reagents (Thermo Scientific). At 24 hours after RNA introduction, the medium was replaced with fresh medium. Specific procedures followed the protocol attached to the gene transfer reagents used.
Doxorubicin (DOX) at a final concentration of 0 µM or 64 µM was applied to MNNG/HOS cells to which various RNAs were introduced as above (1) and then the cells were incubated for 48 hours. To the collected cells was added a urea-containing lysis buffer and the mixture was incubated on ice for 30 minutes to lyse the cells. The lysed cells were centrifuged at 15,000 rpm for 30 minutes at 4°C and the supernatant was collected. The protein concentration in the supernatant was quantified by the Bradford assay (Bio-Rad).
Proteins in the supernatant were separated by electrophoresis using an SDS/polyacrylamide gel and transferred onto a nitrocellulose membrane (Bio-Rad). […] After the membrane was washed with TBS-T, the antigen-antibody complex was detected with the ECL-Prime kit (GE).
On the technique in general: In western blotting, separated proteins are transferred to a membrane and probed.

Setting [1] is: control (negative control nonsense RNA) introduced.
Where [2] appears, read: Homo sapiens, 143B, control (negative control nonsense RNA) introduced.
Where [3] appears, read: Homo sapiens, 143B, miR-100 introduced.
The mark [4] stands for this setting: Homo sapiens, 143B, miR-125b introduced.
Setting [5] is: Homo sapiens, HOS, control (negative control nonsense RNA) introduced.
Setting [6] is: Homo sapiens, HOS, miR-100 introduced.
Where [7] appears, read: Homo sapiens, HOS, miR-125b introduced.
[8] abbreviates: Homo sapiens, MG-63, MG63 cells, control (negative control nonsense RNA) introduced.
Where [9] appears, read: Homo sapiens, MG-63, MG63 cells, miR-100 introduced.
Where [10] appears, read: Homo sapiens, MG-63, MG63 cells, miR-125b introduced.

Turning to `[NH2][Pt]([NH2])([Cl])[Cl]` [CDDP, Cisplatin], the IC50 (as a rule, the midpoint of a concentration-inhibition curve) in the experiment with 143B (setting [1]) is 12300 nM; with 143B (miR-100 introduced), 14500 nM; in the experiment with 143B (miR-125b introduced), 14100 nM; in the experiment on MNNG/HOS (setting [1]), 5700 nM; with MNNG/HOS (miR-100 introduced), 6970 nM; with MNNG/HOS (miR-125b introduced), 7320 nM. Further, the IC50 with MG63 (MG63 cells, control (negative control nonsense RNA) introduced) was 2910 nM; with MG63 (MG63 cells, miR-100 introduced) it was 2570 nM; in the experiment on MG63 (MG63 cells, miR-125b introduced), 1630 nM.

Turning to `COc1cccc2c1C(=O)c1c(O)c3c(c(O)c1C2=O)C[C@@](O)(C(=O)CO)C[C@@H]3O[C@H]1C[C@H](N)[C@H](O)[C@H](C)O1` [DOX, Doxorubicin], the IC50 in the experiment on 143B (setting [2]) amounted to 64 nM; in the experiment on 143B (setting [3]), 77 nM; in the experiment on 143B (setting [4]) it was 72 nM; with MNNG/HOS (setting [5]), 180 nM; in the experiment with MNNG/HOS (setting [6]), 250 nM; in the experiment on MNNG/HOS (setting [7]), 370 nM. Besides, the values for the IC50 in the experiment on MG63 (setting [8]), in the experiment with MG63 (setting [9]) and in the experiment on MG63 (setting [10]) were 65 nM, 73 nM and 74 nM, respectively. The “expression level of BAK1 in NC versus miRNA-125b-introduced cell line” value with BAK1 is “almost the same”.

As to `CN(Cc1cnc2nc(N)nc(N)c2n1)c1ccc(C(=O)N[C@@H](CCC(=O)O)C(=O)O)cc1` [MTX, Methotrexate], the IC50 in the experiment with 143B (setting [2]) was 1490 nM; in the experiment on 143B (setting [3]) it was 3210 nM; in the experiment on 143B (setting [4]) it was 3970 nM; with MNNG/HOS (setting [5]), 1050 nM; in the experiment on MNNG/HOS (setting [6]), 2520 nM; with MNNG/HOS (setting [7]) it was 4030 nM. Further, the results for the IC50 in the experiment with MG63 (setting [8]), in the experiment on MG63 (setting [9]) and in the experiment with MG63 (setting [10]) were 3090 nM, 7180 nM and 7740 nM, respectively.
